Measured values: US20130143902A1, “COMPOSITIONS AND METHODS OF TREATING A PROLIFERATIVE DISEASE WITH A QUINAZOLINONE DERIVATIVE” (GILEAD CALISTOGA LLC, priority 2011, published 2013)
Several values for one entry are separate records, joined by “and”; a condition that tells them apart may be missing. Equal values may be shown once.

Key:
SF-295 = experiment: pAkt pathway inhibition, SF-295; type: cell-based; conditions: Homo sapiens; SF-295, CNS
PI3K p110α = PI3K p110α (Mus musculus, UniProt P42337); experiment: Cellular p110α signaling: PDGF-stimulated MEFs, pAkt Western blot; type: cell-based, murine
Chain of PI3K p110α (P42337 whole entry): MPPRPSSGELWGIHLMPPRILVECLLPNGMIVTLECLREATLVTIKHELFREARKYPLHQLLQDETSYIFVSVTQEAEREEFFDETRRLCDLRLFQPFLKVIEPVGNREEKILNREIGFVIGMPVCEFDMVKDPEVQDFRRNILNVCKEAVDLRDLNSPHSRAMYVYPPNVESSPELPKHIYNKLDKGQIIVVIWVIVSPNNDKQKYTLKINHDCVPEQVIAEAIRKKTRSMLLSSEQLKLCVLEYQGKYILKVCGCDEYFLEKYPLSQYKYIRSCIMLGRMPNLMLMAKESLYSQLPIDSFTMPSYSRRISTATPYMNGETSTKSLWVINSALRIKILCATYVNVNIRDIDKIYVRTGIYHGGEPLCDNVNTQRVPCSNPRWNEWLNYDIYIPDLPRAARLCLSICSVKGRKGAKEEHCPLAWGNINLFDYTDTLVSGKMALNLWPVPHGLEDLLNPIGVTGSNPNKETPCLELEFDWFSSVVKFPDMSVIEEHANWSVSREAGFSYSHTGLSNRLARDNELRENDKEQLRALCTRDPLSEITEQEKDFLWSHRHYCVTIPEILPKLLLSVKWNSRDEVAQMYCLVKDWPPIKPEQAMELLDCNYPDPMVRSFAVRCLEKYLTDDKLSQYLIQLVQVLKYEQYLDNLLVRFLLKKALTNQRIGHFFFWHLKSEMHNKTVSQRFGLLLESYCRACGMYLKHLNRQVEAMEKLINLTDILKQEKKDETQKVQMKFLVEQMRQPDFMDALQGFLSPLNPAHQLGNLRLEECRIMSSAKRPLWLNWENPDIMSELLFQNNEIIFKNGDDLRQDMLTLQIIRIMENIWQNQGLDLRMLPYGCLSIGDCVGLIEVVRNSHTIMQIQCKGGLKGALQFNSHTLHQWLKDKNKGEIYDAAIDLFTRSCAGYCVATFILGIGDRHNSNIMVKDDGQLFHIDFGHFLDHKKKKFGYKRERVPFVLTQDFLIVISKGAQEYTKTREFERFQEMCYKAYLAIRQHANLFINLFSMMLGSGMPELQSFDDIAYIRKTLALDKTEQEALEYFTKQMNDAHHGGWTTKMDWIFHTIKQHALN
Chain of PI3K p110α (P26450 whole entry partner): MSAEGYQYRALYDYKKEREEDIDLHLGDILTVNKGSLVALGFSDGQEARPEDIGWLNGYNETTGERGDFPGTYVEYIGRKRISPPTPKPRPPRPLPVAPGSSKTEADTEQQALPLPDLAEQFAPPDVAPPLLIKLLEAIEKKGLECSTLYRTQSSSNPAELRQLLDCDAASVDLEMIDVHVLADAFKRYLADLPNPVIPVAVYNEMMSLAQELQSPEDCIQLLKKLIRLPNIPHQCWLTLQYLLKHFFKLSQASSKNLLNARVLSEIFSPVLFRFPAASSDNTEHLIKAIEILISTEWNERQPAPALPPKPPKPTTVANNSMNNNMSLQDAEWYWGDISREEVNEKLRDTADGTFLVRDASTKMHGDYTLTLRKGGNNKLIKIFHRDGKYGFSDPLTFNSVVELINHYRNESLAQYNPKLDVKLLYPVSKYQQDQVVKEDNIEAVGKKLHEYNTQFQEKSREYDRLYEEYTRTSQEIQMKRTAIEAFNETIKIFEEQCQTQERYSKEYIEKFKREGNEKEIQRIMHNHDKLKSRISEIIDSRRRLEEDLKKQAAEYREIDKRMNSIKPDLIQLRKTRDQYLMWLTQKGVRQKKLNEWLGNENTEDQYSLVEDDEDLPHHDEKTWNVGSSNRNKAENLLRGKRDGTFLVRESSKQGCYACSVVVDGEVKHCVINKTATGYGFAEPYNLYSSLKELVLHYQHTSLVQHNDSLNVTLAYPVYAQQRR
Procedure: (§3) To analyze PI3K p110α and p110β signaling, murine embryo fibroblast (MEFs) were removed from FBS and starved for 2 hours followed by stimulation with 10 ng/mL of PDGF (Cell Signaling Technologies, Danvers, Mass.) or 10 μM of LPA (Echelon, Salt Lake City, Utah) for 10 minutes at 37° C., respectively. After washing once in cold phosphate-buffered saline (PBS), the cell pellet was resuspended in 1× cell lysis buffer (Cell Signaling Technologies) supplemented with mini protease inhibitor mix (Roche, Indianapolis, Ind.), phosphate inhibitor cocktail set I and II (Calbiochem, San Diego, Calif.) for 15 minutes on ice. Whole-cell lysates were obtained by centrifugation at 16,000 g for 10 minutes at 4° C., and the soluble protein was analyzed by Western blotting for Akt and pAkt levels. To analyze PI3K p110δ and p110γ signaling, basophil activation was measured in isolated PBMC or whole blood using the Flow2 CAST kit according to the manufacture's standardized methods (Buhlman Laboratories AG, Switzerland). Briefly, p110δ was activated with anti-FCεRI and p110γ was activated with fMLP (2 μM) in the absence or presence of compounds. To monitor the basophil cell population and cellular activation, anti-CD63-FITC and anti-CCR3-PE antibodies were added to each sample. Cells were fixed and analyzed on a FC500 MPL flow cytometer (Beckman Coulter, Brea, Calif.).

786-0 [1] = experiment: Viability (AlamarBlue), 786-0; type: cell-based; conditions: Homo sapiens; 786-0, Renal
Procedure: (§1) For primary T-ALL samples, cell viability was determined using the BD Cell Viability kit (BD Biosciences) and fluorescent counting beads as previously described in Armstrong, F. et al., NOTCH is a key regulator of human T-cell acute leukemia initiating cell activity, Blood 113, 1730-1740 (2009). Cells were plated with MS5-DL1 stroma cells. After 72 hours following treatment, cells were harvested and stained with an APC-conjugated anti-human CD45 according to the manufacturer's instructions. For solid tumor cell lines, cellular viability was determined using the AlamarBlue kit (Invitrogen). About 10,000 cells in 100 μL of media containing 10% FBS were aliquoted into individual wells of a 96-well plate and treated with vehicle (DMSO) or compound in triplicate for 24 hours. Ten μL of AlamarBlue reagent was added to each well and incubated for 4 hours at 37° C. with 5% CO2. Fluorescence was measured with an excitation wavelength at 530 to 560 nm and emission wavelength at 590 nm using Spectramax M5 plate reader (Molecular Devices, Sunnyvale, Calif.).

RXF-393 = experiment: pAkt pathway inhibition, RXF-393; type: cell-based; conditions: Homo sapiens; RXF-393, Renal
[2] = test system: pAkt in T Cell Malignancies; experiment: pAkt activity, T cell malignancies; type: cell-based; conditions: N = 7
From the text: (§2) Cellular viability and pAkt activity were used to determine effects of Compounds A, C, and D in solid tumor, B-cell malignancies, and T-cell malignancies.

U87MG [3] = experiment: pAkt pathway inhibition, U87MG; type: cell-based; conditions: Homo sapiens, U-87 MG, Glioma
pAkt in solid tumor = experiment: pAkt activity, solid tumor; type: cell-based; conditions: N = 14
From the text: as §2

Solid tumor = experiment: Cellular viability, solid tumor; type: cell-based; conditions: N = 14
Procedure: as §1, §2

LN18 [4] = experiment: pAkt pathway inhibition, LN18; type: cell-based; conditions: Homo sapiens, LN-18; LN18, Glioma
LNCaP [5] = experiment: Viability (AlamarBlue), LNCaP; type: cell-based; conditions: Homo sapiens, Prostate
Procedure: as §1

LNCaP [6] = experiment: pAkt pathway inhibition, LNCaP; type: cell-based; conditions: Homo sapiens, Prostate
U87MG [7] = experiment: Viability (AlamarBlue), U87MG; type: cell-based; conditions: Homo sapiens, U-87 MG, Glioma
Procedure: as §1

[8] = In vitro metabolism in human liver microsomes; type: in vitro ADME
22Rv1 [9] = experiment: pAkt pathway inhibition, 22Rv1; type: cell-based; conditions: Homo sapiens; 22Rv1, Prostate
LN18 [10] = experiment: Viability (AlamarBlue), LN18; type: cell-based; conditions: Homo sapiens, LN-18; LN18, Glioma
Procedure: as §1

[11] = test system: Akt/PKB phosphorylation in primary T-ALL tumors; experiment: Akt/PKB phosphorylation in primary T-ALL tumors; type: cell-based, human; conditions: primary T-ALL tumors from four patients
Procedure: Cell lysates (from cell lines or thymocytes) were prepared on ice in M-PER Mammalian Protein Extraction reagent (Pierce) containing a cocktail of protease and phosphatase inhibitors as described in Swat, W. et al., Essential role of PI3 Kdelta and PI3 Kgamma in thymocyte survival, Blood 107, 2415-2422 (2006). Equal amounts of total protein from lysates were separated using SDS-PAGE, transferred to PVDF membrane (Immobilon-P, Millipore). Membranes were incubated overnight incubation with appropriate primary antibodies. Bound antibodies were visualized with HRP-conjugated secondary antibodies and ECL chemistry (SuperPico West, Pierce).

T47D = experiment: pAkt pathway inhibition, T47D; type: cell-based; conditions: Homo sapiens, Breast
OVCAR-3 = experiment: Viability (AlamarBlue), OVCAR-3; type: cell-based; conditions: Homo sapiens; OVCAR-3, Ovarian
Procedure: as §1

IGROV-1 [12] = experiment: pAkt pathway inhibition, IGROV-1; type: cell-based; conditions: Homo sapiens; IGROV-1, Ovarian
IGROV-1 [13] = experiment: Viability (AlamarBlue), IGROV-1; type: cell-based; conditions: Homo sapiens; IGROV-1, Ovarian
Procedure: as §1

BT549 = experiment: pAkt pathway inhibition, BT549; type: cell-based; conditions: Homo sapiens, BT-549; BT549, Breast
PI3K p110β = molecular target: T1, PI3K p110β (Mus musculus, UniProt Q8BTI9); experiment: Cellular p110β signaling: LPA-stimulated MEFs, pAkt Western blot; type: cell-based, murine; conditions: EC50 p110β, cellular assay
T1 construct: endogenous in cells; host or cells: murine embryo fibroblasts (MEFs)
T1 sequence (Q8BTI9 whole entry): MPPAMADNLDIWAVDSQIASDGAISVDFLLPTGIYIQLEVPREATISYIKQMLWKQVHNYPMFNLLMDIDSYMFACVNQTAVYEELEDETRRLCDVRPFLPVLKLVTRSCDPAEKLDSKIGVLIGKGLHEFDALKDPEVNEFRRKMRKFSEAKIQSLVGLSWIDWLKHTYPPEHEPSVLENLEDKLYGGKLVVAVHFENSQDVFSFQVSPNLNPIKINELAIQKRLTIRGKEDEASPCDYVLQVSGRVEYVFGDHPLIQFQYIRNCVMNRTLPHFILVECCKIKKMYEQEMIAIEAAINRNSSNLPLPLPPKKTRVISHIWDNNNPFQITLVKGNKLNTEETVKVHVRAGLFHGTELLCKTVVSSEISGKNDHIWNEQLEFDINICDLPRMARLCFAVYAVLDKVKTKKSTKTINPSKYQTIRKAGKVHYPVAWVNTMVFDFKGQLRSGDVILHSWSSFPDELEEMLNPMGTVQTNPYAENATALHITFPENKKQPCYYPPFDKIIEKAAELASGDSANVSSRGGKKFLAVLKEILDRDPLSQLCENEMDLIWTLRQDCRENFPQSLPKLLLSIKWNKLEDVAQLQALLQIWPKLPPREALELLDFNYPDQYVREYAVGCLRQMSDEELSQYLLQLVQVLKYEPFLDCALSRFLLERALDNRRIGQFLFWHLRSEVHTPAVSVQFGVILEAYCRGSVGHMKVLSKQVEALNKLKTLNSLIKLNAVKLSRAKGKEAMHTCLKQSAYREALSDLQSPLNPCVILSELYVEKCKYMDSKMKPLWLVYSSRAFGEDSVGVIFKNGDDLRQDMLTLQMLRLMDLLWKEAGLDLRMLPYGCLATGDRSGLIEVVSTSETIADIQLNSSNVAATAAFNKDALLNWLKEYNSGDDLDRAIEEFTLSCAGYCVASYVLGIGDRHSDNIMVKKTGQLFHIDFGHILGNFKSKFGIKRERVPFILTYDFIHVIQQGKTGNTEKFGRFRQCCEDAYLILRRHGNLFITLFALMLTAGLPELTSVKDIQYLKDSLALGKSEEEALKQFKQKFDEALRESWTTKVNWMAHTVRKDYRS
T1 sequence (P26450 whole entry partner): as the sequence (P26450 whole entry partner) above
Procedure: as §3

22Rv1 [14] = experiment: Viability (AlamarBlue), 22Rv1; type: cell-based; conditions: Homo sapiens; 22Rv1, Prostate
Procedure: as §1

Mouse PK = type: in vivo; conditions: plasma, PO 20 mg/kg
From the text: The pharmacokinetics of Compound A in mouse and dogs were also examined. […] The results of Tmax (time of maximum observed concentration), Cmax (maximum concentration in plasma measured), AUC (area under the curve for plasma concentration versus time), Cl (total body clearance), and Vz (volume of distribution) were summarized in Table 4. As used herein, the mark ‘-’ represents data not relevant. AUC is shown as the unit of ng*h/mL (ng=nanograms, h=hour, mL=milliliter); ng are multiplied by h, and the value is divided by the volume in mL.

786-0 [15] = experiment: pAkt pathway inhibition, 786-0; type: cell-based; conditions: Homo sapiens; 786-0, Renal

## CC(Nc1ncnc2[nH]cnc12)c1nc2cccc(Cl)c2c(=O)n1-c1ccccc1 (stereo not drawn) [Compound A, 2-(1-(9H-purin-6-ylamino)ethyl)-5-chloro-3-phenylquinazolin-4(3H)-one]
SF-295
  EC50: 162 nM
PI3K p110α
  EC50: 6000 nM
786-0 [1]
  GI50: 5000 nM
RXF-393
  EC50: 25 nM
[2]
  EC50: 310 nM
U87MG [3]
  EC50: 17 nM
pAkt in solid tumor
  EC50: 188 nM
Solid tumor
  EC50: 1700 nM
LN18 [4]
  EC50: 10 nM
LNCaP [5]
  GI50: 220 nM
LNCaP [6]
  EC50: 34 nM
U87MG [7]
  GI50: 2500 nM
[8]
  In vitro metabolism: Stable in human liver microsomes
22Rv1 [9]
  EC50: 250 nM
LN18 [10]
  GI50: 3500 nM
[11]
  Akt/PKB phosphorylation: inhibition
T47D
  EC50: 502 nM
OVCAR-3
  GI50: 850 nM
IGROV-1 [12]
  EC50: 10 nM
IGROV-1 [13]
  GI50: 1300 nM
BT549
  EC50: 34 nM
PI3K p110β
  EC50: ~270 nM and 270 nM
22Rv1 [14]
  GI50: 2300 nM
Mouse PK
  AUC: 1500 ng·h/mL
  Cmax: 1280 ng/mL
  Tmax: 15 min
786-0 [15]
  EC50: 44 nM
